Test results published in paper PMC10141592, “Stretching Peptides to Generate Small Molecule β-Strand Mimics” (ACS Central Science, 2023).
≈ marks a conversion by molar mass, not a printed value. Read-outs that look alike come from different tables or passages of the source. *1 amine or outer side, *2 acyl side, *3 side chain or, on linkers, in order; H or OH if unused. Where a SMILES comes first, the peptide text is derived from it. Bridges are numbered along the chain shown (N, C = ends). [ ]: non-standard residue; d: D form. The star is where a group is joined. Dodecyloxycarbonyl = CCCCCCCCCCCCOC(=O)*; CH2C≡CC≡CCH2 = C(C#CC[*:2])#CC[*:1]; NMePra = C#CC[C@H](NC)C(=O)O; X1 = CCCCCCCCCCCCCCCCOC(=O)*; NMeS = CN[C@@H](CO)C(=O)O; Dab = NCC[C@H](N)C(=O)O; Propargyl = C#CC*

Columns and labels:
[1] = system: E. coli BAS901 (permeabilized); assay type: cell-based; details: CLSI broth microdilution, Muller-Hinton broth, 5×10^5 CFU/mL, 24 hr at 37 C, OD600, performed in triplicate
Experimental: (§1) Minimum Inhibitory Concentration Assay
(§2) MICs were performed in accordance with the broth microdilution protocol from the Clinical and Standards Laboratory Institute.3 Alkynomycins were dissolved at 10 mg/mL in DMSO and two-fold serial dilutions were made across a 96-well plate containing Muller-Hinton (MH) broth. One plate was used for each indicator organism, and each well reached a final inoculum of 5×10^5 colony forming units per mL. Using OD600 readings normalized to a negative control, MICs were recorded as the lowest concentration at which growth was inhibited after a 24 hr incubation at 37 C. Controls were included on each plate to ensure peptide and media sterility. MICs are reported in Table 2 and Tables S4, S5 as an average of at least three independent trials.
(§3) Indicator organisms were stored at -80 C as glycerol stocks. Each organism was streaked onto tryptic soy agar and grown for 24 hr at 37 C. Single colonies were picked and used to inoculate MH broth. Bacteria culture was diluted to reach an OD600 of 0.015 prior to being used for MIC assays. […]

MRSA USA 300 [2] = assay type: cell-based; details: USA 300, 24 h
Experimental: as §1, §2, §3

S. epidermidis RP26a [3] = assay type: cell-based; details: 24 h
Experimental: as §1, §2, §3

E. coli MG1655 [4] = assay type: cell-based; details: MG1655, 24 h
Experimental: as §1, §2, §3

MRSA USA 300 [5] = details: previously reported value provided for reference; cited from earlier work
Text: Table 2 Minimum Inhibitory Concentration of Alkynomycins against Gram-Positive and Gram-Negative Bacteria ^a | column: MRSA

[6] = system: E. coli BAS901 (permeabilized); details: previously reported value provided for reference; cited from earlier work
S. epidermidis RP26a [7] = system: S. epidermidis RP26a; parameters: method as in 2 sources, ref 38 = [38]; PMID 21095572; doi:10.1016/j.chembiol.2010.09.009; Smith P. A.; Roberts T. C.; Romesberg F. E. Broad-spectrum antibiotic activity of the arylomycin natural products is masked by natural target mutations . Chem. Biol. 2010 , 17 ( 11 ), 1223 – 1231 . ||| ref 38 (a number printed in a supplementary file, which may have a reference list of its own: not looked up in the article's list); details: previously reported value provided for reference; cited from earlier work
E. coli MG1655 [8] = system: E. coli MG1655; parameters: method as in 2 sources, ref 38 = [38]; PMID 21095572; doi:10.1016/j.chembiol.2010.09.009; Smith P. A.; Roberts T. C.; Romesberg F. E. Broad-spectrum antibiotic activity of the arylomycin natural products is masked by natural target mutations . Chem. Biol. 2010 , 17 ( 11 ), 1223 – 1231 . ||| ref 38 (a number printed in a supplementary file, which may have a reference list of its own: not looked up in the article's list); details: previously reported value provided for reference; cited from earlier work

| Molecule | MIC E. coli Δ [1] [µg/mL] | MIC MRSA (MRSA USA 300 [2]) [µg/mL] | MIC S. epidermidis (S. epidermidis RP26a [3]) [µg/mL] | MIC E. coli (E. coli MG1655 [4]) [µg/mL] | MIC MRSA (MRSA USA 300 [5]) [µg/mL] | MIC E. coli Δ [6] [µg/mL] | MIC S. epidermidis (S. epidermidis RP26a [7]) [µg/mL] | MIC E. coli (E. coli MG1655 [8]) [µg/mL] |
| --- | --- | --- | --- | --- | --- | --- | --- | --- |
| CCCCCCCCCCCCOC(=O)N[C@@H](CCN)C(=O)N(C)[C@H]1CC#CC#CC[C@@H](C(N)=O)NC(=O)[C@H](C)NC1=O [Compound 10] | 4 (≈ 6.64 µM) | 16 (≈ 26.5 µM) | 4 (≈ 6.64 µM) |  |  |  |  |  |
| CCCCCCCCCCCCCCCCOC(=O)N[C@@H](CCN)C(=O)N(C)[C@H]1CC#CC#CC[C@@H](C(N)=O)NC(=O)[C@H](C)NC1=O [Compound 11] | 4 (≈ 6.07 µM) | 8 (≈ 12.1 µM) | 4 (≈ 6.07 µM) | > 64 |  |  |  |  |
| CCCCCCCCCCCCOC(=O)N[C@@H](CCN)C(=O)N(C)[C@@H]1CC#CC#CC[C@H](C(N)=O)NC(=O)[C@H](C)NC1=O [Compound 12] | 16 (≈ 26.5 µM) |  | 16 (≈ 26.5 µM) | > 64 |  |  |  |  |
| CCCCCCCCCCCCCCCCOC(=O)N[C@@H](CCN)C(=O)N(C)[C@@H]1CC#CC#CC[C@H](C(N)=O)NC(=O)[C@H](C)NC1=O [Compound 13] | 32 (≈ 48.6 µM) |  | 16 (≈ 24.3 µM) | > 64 |  |  |  |  |
| CCCCCCCCCCCCOC(=O)N[C@@H](CCN)C(=O)N(C)[C@H]1CC#CC#CCOC[C@@H](C(N)=O)NC(=O)[C@H](C)NC1=O [Compound 14] | 16 (≈ 25.3 µM) | 16 (≈ 25.3 µM) | 16 (≈ 25.3 µM) | > 64 |  |  |  |  |
| CCCCCCCCCCCCCCCCOC(=O)N[C@@H](CCN)C(=O)N(C)[C@H]1CC#CC#CCOC[C@@H](C(N)=O)NC(=O)[C@H](C)NC1=O [Compound 15] | 16 (≈ 23.2 µM) | 16 (≈ 23.2 µM) | 32 (≈ 46.5 µM) | > 64 |  |  |  |  |
| CCCCCCCCCCCCOC(=O)N[C@@H](CCN)C(=O)N(C)[C@H]1CC#CC#CC[C@H](C(N)=O)NC(=O)[C@H](C)NC1=O [Compound S1] | > 64 |  | > 64 | > 64 |  |  |  |  |
| CCCCCCCCCCCCCCCCOC(=O)N[C@@H](CCN)C(=O)N(C)[C@H]1CC#CC#CC[C@H](C(N)=O)NC(=O)[C@H](C)NC1=O [Compound S2] | > 64 |  | > 64 | > 64 |  |  |  |  |
| CCCCCCCCCCCCOC(=O)N[C@@H](CCN)C(=O)N(C)[C@H]1COCC#CC#CC[C@@H](C(N)=O)NC(=O)[C@H](C)NC1=O [Compound S3] | > 64 |  | > 64 | > 64 |  |  |  |  |
| CCCCCCCCCCCCCCCCOC(=O)N[C@@H](CCN)C(=O)N(C)[C@H]1COCC#CC#CC[C@@H](C(N)=O)NC(=O)[C@H](C)NC1=O [Compound S4] | 64 (≈ 92.9 µM) |  | 64 (≈ 92.9 µM) | > 64 |  |  |  |  |
| CCCCCCCCCCCCOC(=O)N[C@@H](CCN)C(=O)N(C)[C@H]1COCC#CC#CC[C@H](C(N)=O)NC(=O)[C@H](C)NC1=O [Compound S5] | > 64 |  | > 64 | > 64 |  |  |  |  |
| CCCCCCCCCCCCCCCCOC(=O)N[C@@H](CCN)C(=O)N(C)[C@H]1COCC#CC#CC[C@H](C(N)=O)NC(=O)[C@H](C)NC1=O [Compound S6] | 64 (≈ 92.9 µM) |  | 64 (≈ 92.9 µM) | > 64 |  |  |  |  |
| CCCCCCCCCCCCOC(=O)N[C@@H](CCN)C(=O)N(C)[C@H]1COCC#CC#CCOC[C@@H](C(N)=O)NC(=O)[C@H](C)NC1=O [Compound S7] (Dodecyloxycarbonyl-[Dab][NMeS]AS-NH2; linker 2-4 via CH2C≡CC≡CCH2) | > 64 |  | > 64 | > 64 |  |  |  |  |
| CCCCCCCCCCCCCCCCOC(=O)N[C@@H](CCN)C(=O)N(C)[C@H]1COCC#CC#CCOC[C@@H](C(N)=O)NC(=O)[C@H](C)NC1=O [Compound S8] (X1-[Dab][NMeS]AS-NH2; linker 2-4 via CH2C≡CC≡CCH2) | 64 (≈ 89 µM) |  | 64 (≈ 89 µM) | > 64 |  |  |  |  |
| CCCCCCCCCCCCOC(=O)N[C@@H](CCN)C(=O)N[C@H]1CC#CC#CC[C@@H](C(N)=O)NC(=O)[C@H](C)NC1=O [Compound S9] | > 64 |  | > 64 | > 64 |  |  |  |  |
| C#CCOC[C@H](NC(=O)[C@H](C)NC(=O)[C@H](CC#C)N(C)C(=O)[C@H](CCN)NC(=O)OCCCCCCCCCCCC)C(N)=O [Compound S10] (Dodecyloxycarbonyl-[Dab][NMePra]AS(Propargyl)-NH2) |  |  | > 64 | > 64 |  |  |  |  |
| Arylomycin A-C16 |  |  |  |  | 32 | 8 | 0.5 | > 64 |
